Assay results published in ChEMBL document CHEMBL1201862, “PubChem BioAssay data set” (2004).
Values joined by “and” are separate entries in the source; they are usually repeats but may differ in a detail not shown here. Equal entries are not always repeated. Values belong to the compound of their own block, whether it stands above or below them. Active and inactive are the calls of the source.

What was measured:
[1] = HEp-2 cell cytotoxicity, dose response, cytotoxicity control for RSV inhibitor project, HTS (AID 2410); format: functional; conditions: human respiratory syncytial virus
[2] = cytotoxicity toward NIH3T3 fibroblasts, dose response, counter-screen, cell-based, ATP luminescence, mouse fibroblasts (AID 2010); format: functional;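 further: cells exposed to compound for about 90 hours before reading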
[3] = inhibitors of intracellular T. cruzi replication, confirmation, NIH3T3 host cells, beta-gal luminescence (AID 2044); format: functional, cell-based;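 further: intracellular parasites grown in NIH/3T3 mouse fibroblasts as host cells; luminescent beta-galactosidase reporter signal from transgenic T. cruzi replicating inside host cells; inhibitors lower the luminescence signal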
Cytochrome P450 2D6 = Cytochrome P450 2D6 (Homo sapiens, UniProt P10635);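 further: CYP2D6 member of a cytochrome P450 panel assay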
Cytochrome P450 1A2 = target: T1, Cytochrome P450 1A2 (Homo sapiens, UniProt P05177);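 further: PubChem cytochrome P450 panel assay, CYP1A2 panel member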
T1 sequence (P05177 whole entry): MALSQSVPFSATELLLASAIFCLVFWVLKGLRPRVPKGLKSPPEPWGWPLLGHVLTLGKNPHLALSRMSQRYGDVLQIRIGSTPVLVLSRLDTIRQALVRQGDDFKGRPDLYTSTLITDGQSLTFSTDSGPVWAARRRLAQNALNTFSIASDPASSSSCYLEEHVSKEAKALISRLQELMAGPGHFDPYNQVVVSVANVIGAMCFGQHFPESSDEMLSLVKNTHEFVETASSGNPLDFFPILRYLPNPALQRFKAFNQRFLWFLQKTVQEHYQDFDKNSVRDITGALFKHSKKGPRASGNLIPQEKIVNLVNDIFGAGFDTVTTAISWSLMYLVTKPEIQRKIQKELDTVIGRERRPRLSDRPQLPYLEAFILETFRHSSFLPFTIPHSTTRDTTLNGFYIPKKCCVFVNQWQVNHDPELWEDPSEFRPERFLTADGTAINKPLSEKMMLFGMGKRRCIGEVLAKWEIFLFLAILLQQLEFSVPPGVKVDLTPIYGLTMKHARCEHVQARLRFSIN

Cytochrome P450 2C9 = Cytochrome P450 2C9 (Homo sapiens, UniProt P11712)
[4] = target: T2, Corticotropin-releasing factor receptor 2/Corticotropin-releasing factor-binding protein (Homo sapiens, UniProt P24387+Q13324); test: activators of CRF receptor 2 with binding protein – uHTS hits, confirmation (AID 602473); format: functional; conditions: read-out: EC50_Mean
T2 sequence (Q13324 whole entry): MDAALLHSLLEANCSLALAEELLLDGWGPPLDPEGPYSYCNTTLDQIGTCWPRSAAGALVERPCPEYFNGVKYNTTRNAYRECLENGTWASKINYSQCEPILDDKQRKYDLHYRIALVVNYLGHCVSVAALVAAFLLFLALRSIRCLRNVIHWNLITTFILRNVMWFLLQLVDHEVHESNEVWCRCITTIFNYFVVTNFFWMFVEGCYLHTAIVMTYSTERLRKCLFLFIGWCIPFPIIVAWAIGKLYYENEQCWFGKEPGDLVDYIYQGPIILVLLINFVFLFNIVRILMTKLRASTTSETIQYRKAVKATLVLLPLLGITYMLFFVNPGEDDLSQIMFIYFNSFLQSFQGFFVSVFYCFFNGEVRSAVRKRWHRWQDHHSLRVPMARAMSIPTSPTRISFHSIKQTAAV
T2 sequence (P24387 whole entry): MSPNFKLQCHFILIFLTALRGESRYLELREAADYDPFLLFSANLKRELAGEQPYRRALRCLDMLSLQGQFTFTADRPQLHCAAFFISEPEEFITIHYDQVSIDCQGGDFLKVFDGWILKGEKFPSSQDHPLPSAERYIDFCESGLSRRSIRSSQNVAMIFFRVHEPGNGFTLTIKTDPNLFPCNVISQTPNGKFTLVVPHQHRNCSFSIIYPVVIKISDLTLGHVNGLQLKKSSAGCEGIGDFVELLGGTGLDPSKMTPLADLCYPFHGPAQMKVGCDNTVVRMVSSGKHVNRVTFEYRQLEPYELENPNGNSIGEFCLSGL

Cytochrome P450 2C9, sequence (P11712 whole entry): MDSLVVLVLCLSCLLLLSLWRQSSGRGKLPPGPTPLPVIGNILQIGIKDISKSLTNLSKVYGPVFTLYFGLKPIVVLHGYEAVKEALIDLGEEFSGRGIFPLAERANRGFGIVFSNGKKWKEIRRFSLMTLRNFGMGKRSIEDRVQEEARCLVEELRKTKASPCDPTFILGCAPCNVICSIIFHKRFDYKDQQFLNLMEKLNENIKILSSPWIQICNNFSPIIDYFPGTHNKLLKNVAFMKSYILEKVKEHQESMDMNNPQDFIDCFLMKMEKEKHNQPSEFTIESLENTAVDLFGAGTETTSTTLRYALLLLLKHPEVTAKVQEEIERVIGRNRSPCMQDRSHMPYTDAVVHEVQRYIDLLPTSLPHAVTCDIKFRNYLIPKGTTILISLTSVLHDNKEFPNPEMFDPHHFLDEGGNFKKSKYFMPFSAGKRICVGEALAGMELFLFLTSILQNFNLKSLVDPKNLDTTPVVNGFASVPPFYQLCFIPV
Cytochrome P450 2D6, sequence (P10635 whole entry): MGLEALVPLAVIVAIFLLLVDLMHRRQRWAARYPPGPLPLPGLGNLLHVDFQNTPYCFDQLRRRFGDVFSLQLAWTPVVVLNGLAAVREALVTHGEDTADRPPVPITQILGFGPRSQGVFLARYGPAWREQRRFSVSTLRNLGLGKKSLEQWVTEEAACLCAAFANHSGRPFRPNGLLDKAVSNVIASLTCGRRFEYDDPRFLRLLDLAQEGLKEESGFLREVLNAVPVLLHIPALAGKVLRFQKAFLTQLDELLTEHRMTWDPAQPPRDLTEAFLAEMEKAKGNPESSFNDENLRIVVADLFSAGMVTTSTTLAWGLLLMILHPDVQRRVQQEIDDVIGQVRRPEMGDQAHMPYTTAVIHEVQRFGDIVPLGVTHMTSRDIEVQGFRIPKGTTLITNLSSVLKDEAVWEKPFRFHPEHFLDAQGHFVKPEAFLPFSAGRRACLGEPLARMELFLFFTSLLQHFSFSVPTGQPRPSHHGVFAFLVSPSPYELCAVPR

AC50 (Cytochrome P450 1A2): 3.16 µM (inconclusive)
Compound: Clc1ccc2c(N3CCC(CCC4CCN(c5ncnc6cc(Cl)ccc56)CC4)CC3)ncnc2c1

AC50 (Cytochrome P450 2C9): 5.62 µM (inconclusive)
Compound: Cc1ccc(S(=O)(=O)c2nc(S(=O)(=O)c3ccc(C)cc3)c(NCc3ccco3)s2)cc1

AC50 (Cytochrome P450 1A2): 25.1 µM (inconclusive)
AC50 (Cytochrome P450 2D6): 20 µM (inconclusive)
Compound: O=C(c1cc(C(F)(F)F)cc(C(F)(F)F)c1)N1CCC[C@@]2(CCN(c3ccccn3)C2)C1

AC50 (Cytochrome P450 1A2): 15.8 µM (inconclusive)
Compound: COC(=O)Cn1c(C(=O)N2CCCC2)cc2c1C[C@H]1CN(C(=O)c3ccccc3)[C@@](Cc3ccc(F)cc3)(C(=O)OC)[C@@H]21

AC50 (Cytochrome P450 2C9): 6.31 µM (inconclusive)
Compound: O=C(C[N+]1(c2ccccc2)CCOCC1)c1ccccc1

EC50 [4]: > 53 µM (inactive)
Compound: c1ccc(CCNc2nc3ccccc3n3nnnc23)cc1

AC50 (Cytochrome P450 2C9): 0.398 µM (inconclusive)
Compound: COc1ccccc1CNc1ncnc2ccc(-c3ccc4c(c3)OCO4)cc12

AC50 (Cytochrome P450 2C9): 2.51 µM (inconclusive)
Compound: C/C(CCC(=O)OC[C@@H]1O[C@H](C#Cc2ccccc2)C=C[C@@H]1Oc1ccc(C)cc1)=N/O[C@@H](C)CN1CCCc2nc(C)c(C)cc21

AC50 (Cytochrome P450 2C9): 31.6 µM (inconclusive)
AC50 (Cytochrome P450 1A2): 12.6 µM (inconclusive)
AC50 (Cytochrome P450 2D6): 39.8 µM (inconclusive)
Compound: N#Cc1cccc(NC(=O)N2CCCC3(CCN(C(=O)c4cccc(F)c4)CC3)C2)c1

AC50 (Cytochrome P450 2C9): 15.8 µM (inconclusive)
Compound: CCOC(=O)C(C)Sc1nnc(CNC(=O)c2ccc(OC)cc2)n1C1CCCCC1 (centres undefined)

AC50 (Cytochrome P450 2C9): 0.794 µM (inconclusive)
Compound: COc1ccc2[nH]cc(CCNc3ccnc(-c4cccnc4)n3)c2c1

AC50 (Cytochrome P450 2C9): 3.98 µM (inconclusive)
AC50 (Cytochrome P450 2D6): 2.51 µM (inconclusive)
Compound: CCCNC(=O)OC[C@@H]1O[C@H](CCO/N=C(\C)CCN2CCCCc3nc(C)c(C)cc32)C=C[C@@H]1Oc1ccc(OC)cc1

AC50 (Cytochrome P450 2C9): 10 µM (inconclusive)
Compound: O=S(=O)(c1ccccc1)N1CCC[C@@]2(CCN(C(c3ccccc3)c3ccccc3)C2)C1

AC50 (Cytochrome P450 1A2): 25.1 µM (inconclusive)
AC50 (Cytochrome P450 2D6): 20 µM (inconclusive)
Compound: CC(C)OC(=O)c1cc2c(ccn2C)n1CC(=O)N1CCC(Cc2ccccc2)CC1

AC50 (Cytochrome P450 2C9): 39.8 µM (inconclusive)
AC50 (Cytochrome P450 2D6): 39.8 µM (inconclusive)
Compound: Cc1ccc(CNC(=O)c2nnn(-c3cccc(C)c3)c2N)cc1

AC50 (Cytochrome P450 2D6): 20 µM (inconclusive)
Compound: COc1cccc(-c2cncnc2NCc2cccs2)c1

AC50 (Cytochrome P450 2C9): 12.6 µM (inconclusive)
Compound: CCN(CC)CCNC(=O)c1ccc(Cl)c(S(=O)(=O)Nc2ccccc2OC)c1

AC50 (Cytochrome P450 1A2): 6.31 µM (inconclusive)
AC50 (Cytochrome P450 2D6): 20 µM (inconclusive)
Compound: CCOc1ccccc1Nc1nc(-c2sc(NC(=O)c3ccccc3)nc2C)cs1

AC50 (Cytochrome P450 2C9): 31.6 µM (inconclusive)
Compound: COc1ccc(-n2c(=O)c(-c3ccc(Cl)cc3)nc3cnc(N4CCOCC4)nc32)cc1

EC50 [4]: > 53 µM (inactive)
Compound: Cc1csc(NC(=O)Cc2ccccc2[N+](=O)[O-])n1

AC50 (Cytochrome P450 2C9): 17.8 µM (inconclusive)
AC50 (Cytochrome P450 2D6): 15.8 µM (inconclusive)
Compound: COc1cc(O)oc1/C=N/c1ccc(C(F)(F)F)cc1

EC50 [4]: 9.53 µM (active)
Compound: COc1ccc(CC(=O)NC(=S)Nc2cccc(C)c2)cc1

AC50 (Cytochrome P450 2C9): 12.6 µM (inconclusive)
AC50 (Cytochrome P450 1A2): 10 µM (inconclusive)
Compound: COCCn1c(=O)c(-c2cccc(C#N)c2)nc2cnc(N3CCOCC3)nc21

AC50 (Cytochrome P450 1A2): 22.4 µM (inconclusive)
Compound: Cc1cc(C(=O)N/N=C/c2cccc(OC(=O)c3ccco3)c2)[nH]n1

AC50 (Cytochrome P450 1A2): 25.1 µM (inconclusive)
Compound: CN(C)C(=O)c1ccc(-c2cncnc2NC2CCNCC2)cc1

AC50 (Cytochrome P450 1A2): 14.1 µM (inconclusive)
Compound: CCCCC(=O)Nc1cc(OCC)c(NC(=O)c2ccccc2[N+](=O)[O-])cc1OCC

AC50 (Cytochrome P450 2D6): 0.562 µM (inconclusive)
Compound: CCOC(=O)NC(=O)CSc1nc2cc(OCC)ccc2[nH]1

AC50 (Cytochrome P450 2D6): 3.16 µM (inconclusive)
Compound: COc1ccc(-c2ccc3c(n2)CCCN3C[C@H](O)CN2CCCc3nc(C)c(C)cc32)cc1

AC50 (Cytochrome P450 2D6): 31.6 µM (inconclusive)
Compound: Cc1cccc(CNc2cc(-c3c(C)noc3C)ncn2)c1

AC50 (Cytochrome P450 2D6): 22.4 µM (inconclusive)
Compound: O=C1C2Sc3nc(O)sc3C(c3ccccc3)C2C(=O)N1c1ccc(Cl)cc1 (centres undefined)

More lines, now with the values behind:

Compound: COc1ccc2nc(NC(=O)C3CCCN(S(=O)(=O)c4cccc5nonc45)C3)sc2c1 (centres undefined)
CC50 [1]: > 50 µM (active)

Compound: c1ccc(Cc2ccc(OCCCNC3CCCC3)cc2)cc1
EC50 [2]: > 30 µM (not active)
EC50 [3]: 0.781 µM (active)

Compound: CC(C)(C)c1cc(/C=C(\C#N)C(N)=S)cc(C(C)(C)C)c1O [TYRPHOSTIN AG 879]
AC50 (Cytochrome P450 2D6): 39.8 µM (inconclusive)

Compound: OCCC1CN(Cc2ccc3nonc3c2)CCN1Cc1ccsc1 (centres undefined)
EC50 [2]: > 60 µM (not active)
EC50 [3]: 0.452 µM (active)

Compound: O=C(Nc1ccccc1C(=O)O)c1cc(S(=O)(=O)N2CCCCC2)c(Cl)cc1Cl
EC50 [2]: 14 µM (active)
EC50 [3]: 3.6 µM (active)

Compound: Fc1cccc(F)c1-c1nc(-c2ccncc2)no1
CC50 [1]: 38 µM (active)

Compound: Cc1cc(C)n(-c2ccc3nnc(C)n3n2)n1
CC50 [1]: 22 µM (active)

Compound: CCN1CCN(c2ccc(NC(=O)C(C)C)cc2Cl)CC1
AC50 (Cytochrome P450 2D6): 14.1 µM (inconclusive)

Compound: CCOc1cc(C)c(C(C)C)cc1S(=O)(=O)n1cnc(C)c1
EC50 [4]: > 53 µM (inactive)
EC50 [2]: 8.49 µM (active)
EC50 [3]: 1.53 µM (active)

Compound: CC(=O)Nc1ccc(Cc2ccc3nc(O)cc(C)c3c2)cc1
AC50 (Cytochrome P450 2C9): 6.31 µM (inconclusive)

Compound: Cn1c(C(=O)OC(C(=O)NC2CCCCC2)c2ccncc2)cc2sccc21 (centres undefined)
EC50 [2]: > 30 µM (not active)
EC50 [3]: > 30 µM (not active)

Compound: CC(C)NC[C@@H](O)COc1ccc(CCOCC2CC2)cc1
AC50 (Cytochrome P450 1A2): 15.8 µM (inconclusive) and 12.6 µM (inconclusive)

Compound: CSc1ccc(CN(C)CCc2ccccn2)cc1
EC50 [2]: > 30 µM (not active)
EC50 [3]: 0.143 µM (active)

Compound: Cc1nn(-c2ccc([N+](=O)[O-])cc2)c2c1C(c1cccc(Br)c1)N1C(=N2)C(=O)Nc2ccccc21 (centres undefined)
EC50 [2]: > 60 µM (not active)
EC50 [3]: 2.13 µM (active)

Compound: CCCCSC(=S)N(C)C1CCS(=O)(=O)C1 (centres undefined)
AC50 (Cytochrome P450 1A2): 25.1 µM (inconclusive)

Compound: O=C(Nc1ccncc1)c1ccc(Cl)c(Cl)c1
EC50 [2]: > 30 µM (not active)
EC50 [3]: 0.472 µM (active)

Compound: CCN(CC)CCCOC(=O)c1ccc(OC)cc1O
EC50 [2]: > 60 µM (not active)
EC50 [3]: 0.743 µM (active)

Compound: CSc1cc(C)nc(NC(C)=O)n1
AC50 (Cytochrome P450 2C9): 3.16 µM (inconclusive)
AC50 (Cytochrome P450 1A2): 1.26 µM (inconclusive)

Compound: O=C(N/N=C/c1ccc([N+](=O)[O-])o1)C(O)c1ccccc1 (centres undefined)
EC50 [2]: > 60 µM (not active)
EC50 [3]: 0.565 µM (active)

Compound: Cn1c(=O)c([N+](=O)[O-])c(NCCc2ccccc2)c2ccccc21
EC50 [2]: > 60 µM (not active)
EC50 [3]: 0.554 µM (active)

Compound: CCN1CCCc2cc(CN(CCN3CCOCC3)C(S)=Nc3cccc(C)c3)ccc21
EC50 [2]: > 60 µM (not active)
EC50 [3]: 1.62 µM (active)

Compound: Clc1ccc2[nH]cc(-c3nnnn3-c3ccc4ccccc4c3)c2c1
EC50 [2]: > 60 µM (not active)
EC50 [3]: 1.97 µM (active)

Compound: COc1ccc(C2SCC(=O)N2CC23CC4CC(CC(C4)C2)C3)cc1 (centres undefined)
EC50 [2]: > 60 µM (not active)
EC50 [3]: 2.87 µM (active)

Compound: O=C(c1cnccn1)N1CCC[C@@]2(CCN(c3ccccc3)C2)C1
AC50 (Cytochrome P450 1A2): 15.8 µM (inconclusive)

Compound: COc1cc(CN2CCCC(C(=O)Nc3cccc(-n4cccn4)c3)C2)ccc1F (centres undefined)
EC50 [2]: > 60 µM (not active)
EC50 [3]: 0.194 µM (active)

Compound: CCN1CCN(CC(=O)N2CCCC(C(=O)c3ccc(Oc4ccccc4)cc3)C2)CC1 (centres undefined)
EC50 [2]: > 30 µM (not active)
EC50 [3]: 0.478 µM (active)

Compound: CC(Oc1ccc(-c2ccccc2)cc1)C(=O)O (centres undefined)
AC50 (Cytochrome P450 2C9): 39.8 µM (inconclusive)
AC50 (Cytochrome P450 1A2): 25.1 µM (inconclusive)

Compound: Cc1[nH]c2ccc(F)cc2c1CCN(Cc1cccnc1)C(S)=Nc1ccccc1
EC50 [2]: > 60 µM (not active)
EC50 [3]: 0.953 µM (active)

Compound: CCOC(=O)N1CCC(N2CCCC(C(=O)c3cc(F)ccc3OC)C2)CC1 (centres undefined)
EC50 [2]: > 60 µM (not active)
EC50 [3]: 2.66 µM (active)
